Data reported in paper PMC5702617, “Novel peptide probes to assess the tensional state of fibronectin fibers in cancer” (Nature Communications, 2017).
Read-outs that look alike come from different tables or passages of the source.

Legend:
PC-3-bearing mice [1] = assay: SPECT/CT imaging of PC-3-bearing mice; type: in vivo, mouse
Description: Thirty-three days from the inoculation of the tumor cells, the mice were intravenously injected with ~15 MBq ^111In-FnBPA5 resp. ^111In-scrambled FnBPA5-NODAGA (2.4 nmol, 100 µL PBS) into the tail vein. […] The images were reconstituted and processed with InVivoScope® software (Bioscan Inc., Washington DC, USA).

[2] = Biodistribution in PC-3 tumor grafted mice; type: in vivo, mouse; settings: female, CD1 nude, mouse, in vivo, iv, 150 kBq (2.4 nmol), total radioactivity, PC-3 grafted mice, i.v. 150 kBq (2.4 nmol), mean ± SD, n = 4; for tissue to tissue ratio at 1 h: 1 h p.i.; for tissue to tissue ratio at 4 h: 4 h p.i.; for tissue to tissue ratio at 24 h: 24 h p.i.; for tissue to tissue ratio at 96 h: 96 h p.i.
Description: (§1) Experiments were performed 3–4 weeks after inoculation.
(§2) For the biodistribution experiments, PC-3 tumor grafted mice were injected into the tail vein with 150 kBq ^111In-FnBPA5 or ^111In-scrambled FnBPA5 (2.4 nmol, 100 µL PBS). For each peptide, groups of four mice were sacrificed at 1, 4, 24, and 96 h post injection. Blocking experiment (n = 4) was performed by injection of an excess of peptide (100 µg, 24 nmol in 100 µL PBS) directly before the administration of the corresponding radiolabeled peptide. The organs were collected, weighed and counted for activity with a γ counter (Packard Cobra II Auto, Gamma, PerkinElmer AG, Schwerzenbach, Switzerland) 4 h p.i. The results were expressed as a percentage of injected activity per gram of tissue (% IA per g tissue). The Student's t test analyses were considered as type 3 (two sample unequal variance) and statistical significance was assumed for p-values smaller than 0.05.

PC-3-bearing mice [3] = assay: Biodistribution in PC-3 tumor grafted mice; type: in vivo, mouse; settings: PC-3 grafted mice, i.v. 150 kBq (2.4 nmol, 100 µL PBS), γ counter, mean ± SD, n = 4
Description: as §1, §2

[4] = In vitro plasma stability; type: in vitro ADME, human; settings: RP-HPLC, means from three experiments; for stability in human blood plasma: 37°C
Description: The stability of peptides in blood is often limited as they are rapidly cleaved by catalytic enzymes found in tissue and blood, resulting in a short biological half-life. […] To verify whether the FnBPA5 peptide can be used for in vivo applications, we next performed a plasma stability test. The metabolic stability of the peptide radiotracer ^111In-FnBPA5 was tested in vitro by incubating the radiolabeled FnBPA5 at 37°C with human blood plasma, or water as control. The unbound peptide fraction was separated from the plasma proteins at different time points (0, 1, 24, 48, and 72 h) and was analyzed by reversed-phase high-pressure liquid chromatography (RP-HPLC).
After that, the samples were filtrated using a Thomson Single StEP Filter vial 0.45 μm PVDF (Thomson Instrument Company, Oceanside, USA) and the supernatant was analyzed by reversed-phase HPLC (Varian Prostar HPLC System, SpectraLab Scientific Inc., Canada) using a D-Bio Discovery Wide Pore C18 column (25 cm × 4.6 mm; 5 μm).

PC-3-bearing mice [5] = assay: In vivo blocking experiment in PC-3 tumor grafted mice; design: species or system mouse
Description: as §2

[6] = read-out: Tumor-to-kidney ratio
[7] = 10-fold excess of unlabeled FnBPA5 (24 nmol) pre-injected, 4 h p.i.
[8] = 4h p.i. blocking: corresponding unlabeled peptide (24 nmol) i.v. directly before the radiolabeled peptide, PC-3 grafted mice, mean ± SD, n = 4

## CC[C@H](C)[C@H](NC(=O)CNC(=O)[C@H](CCCCN)NC(=O)[C@@H](NC(=O)[C@H](CO)NC(=O)[C@H](CCC(=O)O)NC(=O)[C@H](CCC(=O)O)NC(=O)[C@H](CC(=O)O)NC(=O)[C@H](Cc1ccccc1)NC(=O)[C@H](CCC(=O)O)NC(=O)[C@@H](NC(=O)[C@H](CC(C)C)NC(=O)[C@H](CC(N)=O)NC(=O)[C@H](CO)NC(=O)[C@H](CCC(=O)O)NC(=O)[C@@H](NC(=O)[C@@H](NC(=O)[C@@H](NC(=O)[C@H](CCC(N)=O)NC(=O)CNC(=O)CNC(=O)CNC(=O)[C@@H](N)CSC1CC(=O)N(CCNC(=O)CCC(C(=O)O)N2CCN(CC(=O)O)CCN(CC(=O)O)CC2)C1=O)C(C)C)[C@@H](C)O)[C@@H](C)O)C(C)C)[C@@H](C)O)C(=O)N[C@H](C(=O)N[C@H](C(=O)NCC(=O)N[C@@H](C)C(=O)N[C@H](C(=O)N[C@@H](CO)C(=O)N[C@@H](CC(=O)O)C(=O)N[C@@H](Cc1c[nH]cn1)C(=O)N[C@H](C(=O)N[C@H](C(=O)N[C@H](C(=O)N[C@@H](CCC(=O)O)C(=O)N[C@@H](CC(=O)O)C(=O)N[C@H](C(=O)N[C@@H](CCCCN)C(=O)O)[C@@H](C)O)C(C)C)[C@@H](C)O)[C@@H](C)O)C(C)C)[C@@H](C)O)C(C)C (some centres unmarked) [111In-FnBPA5, metal not drawn]
PC-3-bearing mice [1]; ~15 MBq (2.4 nmol, 100 µL PBS) i.v., up to 96 h p.i.
  SPECT/CT distribution: mainly accumulated in the kidneys
PC-3-bearing mice [1]; ~15 MBq i.v., 96 h p.i., post mortem, kidneys removed
  SPECT/CT distribution after kidney removal: predominant uptake in the tumor, liver, and spleen
[2]; read-out: Tumor-to-blood ratio
  tissue to tissue ratio at 1 h: 3.05 ± 1.65
  tissue to tissue ratio at 4 h: 9.68 ± 1.83
  tissue to tissue ratio at 24 h: 23.9 ± 2.52
  tissue to tissue ratio at 96 h: 34 ± 18.4
[2]; [6]
  tissue to tissue ratio at 1 h: 0.03
  tissue to tissue ratio at 4 h: 0.03
  tissue to tissue ratio at 24 h: 0.04
  tissue to tissue ratio at 96 h: 0.05 ± 0.02
[2]; read-out: Tumor-to-liver ratio
  tissue to tissue ratio at 1 h: 0.66 ± 0.22
  tissue to tissue ratio at 4 h: 1.18 ± 0.08
  tissue to tissue ratio at 24 h: 2.21 ± 0.25
  tissue to tissue ratio at 96 h: 2.11 ± 0.82
PC-3-bearing mice [3]; 1 h p.i.
  Biodistribution, Blood: 1.81 ± 0.62 IA% / g
  Biodistribution, Bone: 1.85 ± 0.21 IA% / g
  Biodistribution, Heart: 1.76 ± 0.51 IA% / g
  Biodistribution, Intestines: 2.27 ± 0.33 IA% / g
  Biodistribution, Kidneys: 140.58 ± 18.10 IA% / g
  Biodistribution, Liver: 7.52 ± 1.50 IA% / g
  Biodistribution, Lung: 2.88 ± 0.64 IA% / g
  Biodistribution, Muscle: 0.57 ± 0.07 IA% / g
  Biodistribution, Pancreas: 2.58 ± 1.27 IA% / g
  Biodistribution, Spleen: 7.01 ± 1.23 IA% / g
  Biodistribution, Stomach: 3.07 ± 0.39 IA% / g
PC-3-bearing mice [3]; 4 h p.i.
  Biodistribution, Blood: 0.48 ± 0.08 IA% / g
  Biodistribution, Bone: 1.32 ± 0.26 IA% / g
  Biodistribution, Heart: 0.91 ± 0.06 IA% / g
  Biodistribution, Intestines: 1.77 ± 0.12 IA% / g
  Biodistribution, Kidneys: 130.66 ± 10.32 IA% / g
  Biodistribution, Liver: 3.85 ± 0.16 IA% / g
  Biodistribution, Lung: 1.98 ± 0.12 IA% / g
  Biodistribution, Muscle: 0.50 ± 0.17 IA% / g
  Biodistribution, Pancreas: 2.31 ± 1.18 IA% / g
  Biodistribution, Spleen: 3.35 ± 0.33 IA% / g
  Biodistribution, Stomach: 2.46 ± 0.36 IA% / g
  Biodistribution, Tumor: 4.51 ± 0.15 IA% / g
PC-3-bearing mice [3]; 24 h p.i.
  Biodistribution, Blood: 0.15 ± 0.008 IA% / g
  Biodistribution, Bone: 0.86 ± 0.117 IA% / g
  Biodistribution, Heart: 0.31 ± 0.025 IA% / g
  Biodistribution, Intestines: 0.57 ± 0.039 IA% / g
  Biodistribution, Kidneys: 92.36 ± 14.25 IA% / g
  Biodistribution, Liver: 1.64 ± 0.26 IA% / g
  Biodistribution, Lung: 1.05 ± 0.11 IA% / g
  Biodistribution, Muscle: 0.24 ± 0.034 IA% / g
  Biodistribution, Pancreas: 0.78 ± 0.47 IA% / g
  Biodistribution, Spleen: 1.38 ± 0.068 IA% / g
  Biodistribution, Stomach: 0.51 ± 0.15 IA% / g
  Biodistribution, Tumor: 3.59 ± 0.53 IA% / g
PC-3-bearing mice [3]; 96 h p.i.
  Biodistribution, Blood: 0.06 ± 0.027 IA% / g
  Biodistribution, Bone: 0.50 ± 0.09 IA% / g
  Biodistribution, Heart: 0.14 ± 0.017 IA% / g
  Biodistribution, Intestines: 0.13 ± 0.02 IA% / g
  Biodistribution, Kidneys: 39.69 ± 4.79 IA% / g
  Biodistribution, Liver: 0.89 ± 0.12 IA% / g
  Biodistribution, Lung: 0.32 ± 0.038 IA% / g
  Biodistribution, Muscle: 0.095 ± 0.02 IA% / g
  Biodistribution, Pancreas: 0.18 ± 0.046 IA% / g
  Biodistribution, Spleen: 0.73 ± 0.417 IA% / g
  Biodistribution, Stomach: 0.31 ± 0.052 IA% / g
  Biodistribution, Tumor: 1.87 ± 0.773 IA% / g
[4]; 1 hour time point
  stability in human blood plasma: high stability
[4]; later time point
  stability in human blood plasma: very high stability
[4]; filtered fresh human blood plasma, 37 °C, 72 h, 12 MBq
  fraction intact in human blood plasma: 80%
[4]; filtered fresh human blood plasma, 37 °C, 72 h, 12 MBq, read-out: fraction intact in human blood plasma
  remaining at 72 h: ~80%
PC-3-bearing mice [5]; 24 nmol unlabeled peptide pre-injected, 4 h p.i., Student's t test, n = 4
  effect of pre-injection of unlabeled peptide on accumulation: significant reduction
PC-3-bearing mice [5]; [7]
  blocking effect on uptake, liver: −58.2%
  blocking effect on uptake, tumor tissue: −35.6%
PC-3-bearing mice [5]; [8]
  Biodistribution with blocking, Blood: 0.29 ± 0.074 IA% / g
  Biodistribution with blocking, Bone: 0.73 ± 0.31 IA% / g
  Biodistribution with blocking, Heart: 0.37 ± 0.080 IA% / g
  Biodistribution with blocking, Intestines: 0.53 ± 0.137 IA% / g
  Biodistribution with blocking, Kidneys: 175.80 ± 32.48 IA% / g
  Biodistribution with blocking, Liver: 1.61 ± 0.56 IA% / g
  Biodistribution with blocking, Lung: 0.95 ± 0.317 IA% / g
  Biodistribution with blocking, Muscle: 0.20 ± 0.12 IA% / g
  Biodistribution with blocking, Pancreas: 0.96 ± 0.384 IA% / g
  Biodistribution with blocking, Spleen: 1.33 ± 0.402 IA% / g
  Biodistribution with blocking, Stomach: 1.13 ± 0.14 IA% / g
  Biodistribution with blocking, Tumor: 2.91 ± 0.70 IA% / g
